Data published in patent US20070208173A1, “CRYSTALLINE HYDRATES OF CEFDINIR CALCIUM SALT” (priority 2006, published 2007).

Key:
Format in all cases: physicochemical
Solubility in solvents = test: Solubility in solvents
Description: (§1) Cefdinir, calcium salt pentahydrate is stable at temperatures between about 25° C. and about 55° C.

Stability to temperature = settings: temperatures between about 25° C. and about 55° C.
Description: as §1

[1] = Moisture Sorption/Desorption
Description: as §1

C=CC1=C(C(=O)[O-])N2C(=O)[C@@H](NC(=O)/C(=N\O)c3csc(N)n3)[C@H]2SC1.C=CC1=C(C(=O)[O-])N2C(=O)[C@@H](NC(=O)/C(=N\O)c3csc(N)n3)[C@H]2SC1.O.O.O.O.O.[Ca+2] (single isomer, unassigned) [Cefdinir, calcium salt pentahydrate, calcium (6R-(6α,7β(Z)))-7-(((2-amino-1,3-thiazol-4-yl)(hydroxyimino)acetyl)amino)-3-ethenyl-8-oxo-5-thia-1-azabicyclo[4.2.0]oct-2-ene-2-carboxylate (cefdinir, calcium salt, syn-isomer) pentahydrate]
solubility in acetone (Solubility in solvents; acetone): less than 1 mg/mL | solubility in acetonitrile (Solubility in solvents; acetonitrile): less than 1 mg/mL | solubility in dichloromethane (Solubility in solvents; dichloromethane): less than 1 mg/mL | solubility in dimethylsulfoxide (Solubility in solvents; dimethylsulfoxide): greater than 96 mg/mL | solubility in ethanol (Solubility in solvents; ethanol): less than 1 mg/mL | solubility in methanol (Solubility in solvents; methanol): less than 1 mg/mL | solubility in water (Solubility in solvents; water): about 3 mg/mL | stability at temperature (Stability to temperature): stable | Weight ([1]; Time 0.1 min, 24.9 ° C., Rel. Humid. 51.63 (start)): 6.2888 mg | Weight ([1]; Time 32.6 min, 25.0 ° C., Rel. Humid. 4.83): 6.2448 mg | Weight ([1]; Time 48.6 min, 25.0 ° C., Rel. Humid. 14.82): 6.2605 mg | Weight ([1]; Time 61.7 min, 25.0 ° C., Rel. Humid. 24.85): 6.2704 mg | Weight ([1]; Time 74.6 min, 25.0 ° C., Rel. Humid. 34.82): 6.2782 mg | Weight ([1]; Time 87.6 min, 24.9 ° C., Rel. Humid. 44.75): 6.2849 mg | Weight ([1]; Time 100.6 min, 25.0 ° C., Rel. Humid. 54.93): 6.2910 mg | Weight ([1]; Time 113.6 min, 25.0 ° C., Rel. Humid. 64.86): 6.2957 mg | Weight ([1]; Time 125.2 min, 25.0 ° C., Rel. Humid. 74.81): 6.3005 mg | Weight ([1]; Time 138.9 min, 25.0 ° C., Rel. Humid. 84.80): 6.3064 mg | Weight ([1]; Time 220.7 min, 25.1 ° C., Rel. Humid. 94.58): 6.3638 mg | Weight ([1]; Time 241.5 min, 25.1 ° C., Rel. Humid. 85.41 (desorption)): 6.3265 mg | Weight ([1]; Time 256.2 min, 25.1 ° C., Rel. Humid. 75.18 (desorption)): 6.3087 mg | Weight ([1]; Time 271.2 min, 25.1 ° C., Rel. Humid. 65.07 (desorption)): 6.3015 mg | Weight ([1]; Time 284.1 min, 25.1 ° C., Rel. Humid. 55.11 (desorption)): 6.2965 mg | Weight ([1]; Time 300.4 min, 25.1 ° C., Rel. Humid. 45.16 (desorption)): 6.2899 mg | Weight ([1]; Time 313.1 min, 25.1 ° C., Rel. Humid. 35.08 (desorption)): 6.2827 mg | Weight ([1]; Time 326.1 min, 25.0 ° C., Rel. Humid. 25.12 (desorption)): 6.2745 mg | Weight ([1]; Time 338.7 min, 25.0 ° C., Rel. Humid. 15.13 (desorption)): 6.2650 mg | Weight ([1]; Time 360.9 min, 25.0 ° C., Rel. Humid. 5.03 (desorption)): 6.2484 mg
